{
  "source": "paper PMC12363950",
  "about": "(bioRxiv, 2025)",
  "molecular_target": "CRAF (Homo sapiens, UniProt P04049, Y340D/Y341D)",
  "data": [
    {"compound": "CCCS(=O)(=O)Nc1ccc(F)c(C(=O)c2c[nH]c3ncc(Cl)cc23)c1F", "note": "[PLX4720]", "values": [
      {"measurement": "X-ray crystal structure, 2.91 Å", "result": "The structure reveals clear electron density for both PLX4720 and CH5126766"}
    ]}
  ]
}
